Data taken from ChEMBL document CHEMBL6127066, “Pegylation enhances the anti-osteoporosis activity of acacetin in both ovariectomized and LPS-stimulated mice” (Bioorg Med Chem, 2024).
Activity calls are given as the source filed them. No cut-off for these calls is given here.

Columns and labels:
[1] = test system: Mus musculus; assay: Anti-osteoporosis activity in OVX-induced […] C57BL/6J mouse model assessed as improvement in trabecular thickness in femur at 9.36 mg/kg measured every three days for 7 weeks by Micro-CT 3D scanning analysis; type: functional, organism-based
[2] = test system: Mus musculus; assay: Anti-osteoporosis activity LPS induced male C57BL/6J mouse model assessed as increase in trabecular bone volume fraction in femur at 9.36 mg/kg measured every 2 days for 12 day by Micro-CT 3D scanning method; type: functional, organism-based
[3] = test system: BMDM; assay: Anti-osteoclastogenesis activity in RANKL-induced mouse BMDM cells assessed as reduction in number of TRAP-positive cells at 10 uM measured after 4 days by TRAP staining based analysis; type: functional, cell-based; conditions: time 4.0 day
[4] = test system: RAW264.7; assay: Antiinflammatory activity in LPS-induced mouse RAW264.7 cells assessed as inhibition of Tnf mRNA expression at 10 uM preincubated for 3 hrs followed by LPS stimulation and measured after 6 hrs by RT-PCR analysis; type: functional, cell-based; conditions: time 9.0 hrs
[5] = species: Mus musculus; assay: Anti-osteoporosis activity LPS induced male C57BL/6J mouse model assessed as attenuation of number of osteoclast per unit of trabecular bone area by TRAP staining based analysis; type: functional, organism-based
[6] = Drug uptake in male C57BL/6J mouse serum assessed as increase in acacetin level at 93.6 mg/kg, ip measured after 10 mins; type: ADME, organism-based; conditions: in vivo
[7] = species: Mus musculus; assay: Anti-osteoporosis activity LPS induced male C57BL/6J mouse model assessed as increase in density of cancellous bone trabeculae in femur by H and E staining based analysis; type: functional, organism-based
[8] = test system: BMDM; assay: Anti-osteoclastogenesis activity in RANKL-induced mouse BMDM cells assessed as downregulation of TRAP mRNA expression at 10 uM measured after 4 days by RT-PCR analysis; type: functional, cell-based; conditions: time 4.0 day
[9] = Cytotoxicity against mouse BMDM cells at <20 uM measured after 48 to 96 hrs by CCK-8 method; type: toxicity, cell-based; conditions: time 48-96 hrs
[10] = species: Mus musculus; assay: Anti-osteoporosis activity OVX-induced […] C57BL/6J mouse model assessed as attenuation of number of osteoclast by TRAP staining based analysis; type: functional, organism-based
[11] = test system: BMDM; assay: Anti-osteoclastogenesis activity in RANKL-induced mouse BMDM cells assessed as downregulation of Ctsk-mRNA expression at 10 uM measured after 4 days by RT-PCR analysis; type: functional, cell-based; conditions: time 4.0 day
[12] = test system: BMDM; assay: Anti-osteoclastogenesis activity in RANKL-induced mouse BMDM cells assessed as downregulation of Acp mRNA expression at 10 uM measured after 4 days by RT-PCR analysis; type: functional, cell-based; conditions: time 4.0 day
[13] = test system: Mus musculus; assay: Anti-osteoporosis activity in OVX-induced […] C57BL/6J mouse model assessed as improvement in BMD in femur at 9.36 mg/kg measured every three days for 7 weeks by Micro-CT 3D scanning analysis; type: functional, organism-based
[14] = test system: Mus musculus; assay: Anti-osteoporosis activity in OVX-induced […] C57BL/6J mouse model assessed as improvement in trabecular bone volume fraction in femur at 9.36 mg/kg measured every three days for 7 weeks by Micro-CT 3D scanning analysis; type: functional, organism-based
[15] = test system: Mus musculus; assay: Anti-osteoporosis activity LPS induced male C57BL/6J mouse model assessed as increase in trabecular number in femur at 9.36 mg/kg measured every 2 days for 12 day by Micro-CT 3D scanning method; type: functional, organism-based
[16] = test system: BMDM; assay: Anti-osteoclastogenesis activity in RANKL-induced mouse BMDM cells assessed as downregulation of Fos mRNA expression at 10 uM measured after 4 days by RT-PCR analysis; type: functional, cell-based; conditions: time 4.0 day
[17] = species: Mus musculus; assay: Anti-osteoporosis activity OVX-induced […] C57BL/6J mouse model assessed as reduction of trabecular bone in femur by H and E staining based analysis; type: functional, organism-based
[18] = test system: Mus musculus; assay: Anti-osteoporosis activity in OVX-induced […] C57BL/6J mouse model assessed as improvement in trabecular number in femur at 9.36 mg/kg measured every three days for 7 weeks by Micro-CT 3D scanning analysis; type: functional, organism-based
[19] = species: Mus musculus; assay: Anti-osteoporosis activity LPS induced male C57BL/6J mouse model assessed as reduction of CTX-I level by ELISA method; type: functional, organism-based
[20] = species: Mus musculus; assay: Anti-osteoporosis activity OVX-induced […] C57BL/6J mouse model assessed as reduction of CTX-I level by ELISA method; type: functional, organism-based
[21] = test system: RAW264.7; assay: Antiinflammatory activity in LPS-induced mouse RAW264.7 cells assessed as inhibition of Il6 mRNA expression at 10 uM preincubated for 3 hrs followed by LPS stimulation and measured after 6 hrs by RT-PCR analysis; type: functional, cell-based; conditions: time 9.0 hrs
[22] = test system: BMDM; assay: Anti-osteoclastogenesis activity in RANKL-induced mouse BMDM cells assessed as reduction in TRAP-positive area at 10 uM measured after 4 days by TRAP staining based analysis; type: functional, cell-based; conditions: time 4.0 day
[23] = test system: Mus musculus; assay: Anti-osteoporosis activity in OVX-induced […] C57BL/6J mouse model assessed as improvement in trabecular thickness in femur at 5 mg/kg measured every three days for 7 weeks by Micro-CT 3D scanning analysis; type: functional, organism-based
[24] = test system: Mus musculus; assay: Anti-osteoporosis activity in OVX-induced […] C57BL/6J mouse model assessed as improvement in BMD in femur at 5 mg/kg measured every three days for 7 weeks by Micro-CT 3D scanning analysis; type: functional, organism-based
[25] = test system: Mus musculus; assay: Anti-osteoporosis activity LPS induced male C57BL/6J mouse model assessed as increase in trabecular thickness in femur at 5 mg/kg measured every 2 days for 12 day by Micro-CT 3D scanning method; type: functional, organism-based
[26] = Drug uptake in male C57BL/6J mouse serum assessed as increase in acacetin level at 50 mg/kg, ip measured after 10 mins; type: ADME, organism-based; conditions: in vivo
[27] = test system: Mus musculus; assay: Anti-osteoporosis activity LPS induced male C57BL/6J mouse model assessed as increase in trabecular number in femur at 5 mg/kg measured every 2 days for 12 day by Micro-CT 3D scanning method; type: functional, organism-based
[28] = test system: Mus musculus; assay: Anti-osteoporosis activity LPS induced male C57BL/6J mouse model assessed as increase in BMD in femur at 5 mg/kg measured every 2 days for 12 day by Micro-CT 3D scanning method; type: functional, organism-based
[29] = test system: Mus musculus; assay: Anti-osteoporosis activity in OVX-induced […] C57BL/6J mouse model assessed as improvement in trabecular number in femur at 5 mg/kg measured every three days for 7 weeks by Micro-CT 3D scanning analysis; type: functional, organism-based
[30] = test system: Mus musculus; assay: Anti-osteoporosis activity LPS induced male C57BL/6J mouse model assessed as increase in trabecular bone volume fraction in femur at 5 mg/kg measured every 2 days for 12 day by Micro-CT 3D scanning method; type: functional, organism-based
[31] = test system: Mus musculus; assay: Anti-osteoporosis activity in OVX-induced […] C57BL/6J mouse model assessed as improvement in trabecular bone volume fraction in femur at 5 mg/kg measured every three days for 7 weeks by Micro-CT 3D scanning analysis; type: functional, organism-based

Row | Compound | Activity [3] | Activity [5] | Activity [7] | Activity [8] | Activity [9] | Activity [10] | Activity [11] | Activity [12] | Activity [16] | Activity [17] | Activity [22] | other results
1 | COCCOCCOCCOCCOCC(=O)Oc1cc(O)c2c(=O)cc(-c3ccc(OC)cc3)oc2c1 | Active | Active | Active | Active | Non-Toxic | Active | Active | Active | Active | Active | Active | Activity [1]: Active; Activity [2]: Active; Activity [4]: Active; Drug uptake [6]: 3528.82 ng/mL; Activity [13]: Active; Activity [14]: Active; Activity [15]: Active; Activity [18]: Active; Activity [19]: Active; Activity [20]: Active; Activity [21]: Active
2 | COc1ccc(-c2cc(=O)c3c(O)cc(O)cc3o2)cc1 [ACACETIN] | Active | Active | Active | Active | Non-Toxic | Active | Active | Active | Active | Active | Active | Activity [23]: Active; Activity [24]: Active; Activity [25]: Active; Drug uptake [26]: 489.59 ng/mL; Activity [27]: Active; Activity [28]: Active; Activity [29]: Active; Activity [30]: Active; Activity [31]: Active
